Assay results: US20140323721A1, “HETEROCYCLIC COMPOUNDS AND USES THEREOF” (INTELLIKINE, LLC, priority 2011, published 2014)
Read-outs that look alike come from different tables or passages of the source.

Columns and labels:
PI3K α = PI3K α (Homo sapiens, UniProt P42336); experiment: PI 3-Kinase HTRF inhibition assay, PI3K α; assay type: biochemical; details: in vitro
Description: (§1) Commercial kits or systems for assaying PI3-K activities are available. The commercially available kits or systems can be used to screen for inhibitors and/or agonists of PI3-Ks including but not limited to PI 3-Kinase α, β, δ, and γ. Anr exemplary system is PI 3-Kinase (human) HTRF™ Assay from Upstate. […] Briefly, the assay is a time resolved FRET assay that indirectly measures PIP3 product formed by the activity of a PI3-K. The kinase reaction is performed in a microtitre plate (e.g., a 384 well microtitre plate). The total reaction volume is approximately 20 ul per well. In the first step, each well receives 2 ul of test compound in 20% dimethylsulphoxide resulting in a 2% DMSO final concentration. Next, approximately 14.5 ul of a kinase/PIP2 mixture (diluted in 1× reaction buffer) is added per well for a final concentration of 0.25-0.3 ug/ml kinase and 10 μM PIP2. The plate is sealed and incubated for 15 minutes at room temperature. To start the reaction, 3.5 ul of ATP (diluted in 1× reaction buffer) is added per well for a final concentration of 10 μM ATP. The plate is sealed and incubated for 1 hour at room temperature. The reaction is stopped by adding 5 ul of Stop Solution per well and then 5 ul of Detection Mix is added per well. The plate is sealed, incubated for 1 hour at room temperature, and then read on an appropriate plate reader. Data is analyzed and IC50s are generated using GraphPad Prism 5. For PI3K α, β, δ, and γ, the nM conentration of inhibitor to reach IC50 is provided. […] Similar assays, and others known in the art, can be used to measure the percent inhibition of other kinases, including but not limited to PI3K class II kinases, phosphoinositide 4 kinases (PI4K), and phosphoinositide 5 kinases (PI5K).

PI3K δ = PI3K δ (Homo sapiens, UniProt O00329); experiment: PI 3-Kinase HTRF inhibition assay, PI3K δ; assay type: biochemical; details: in vitro
Chain of PI3K δ (O00329 whole entry): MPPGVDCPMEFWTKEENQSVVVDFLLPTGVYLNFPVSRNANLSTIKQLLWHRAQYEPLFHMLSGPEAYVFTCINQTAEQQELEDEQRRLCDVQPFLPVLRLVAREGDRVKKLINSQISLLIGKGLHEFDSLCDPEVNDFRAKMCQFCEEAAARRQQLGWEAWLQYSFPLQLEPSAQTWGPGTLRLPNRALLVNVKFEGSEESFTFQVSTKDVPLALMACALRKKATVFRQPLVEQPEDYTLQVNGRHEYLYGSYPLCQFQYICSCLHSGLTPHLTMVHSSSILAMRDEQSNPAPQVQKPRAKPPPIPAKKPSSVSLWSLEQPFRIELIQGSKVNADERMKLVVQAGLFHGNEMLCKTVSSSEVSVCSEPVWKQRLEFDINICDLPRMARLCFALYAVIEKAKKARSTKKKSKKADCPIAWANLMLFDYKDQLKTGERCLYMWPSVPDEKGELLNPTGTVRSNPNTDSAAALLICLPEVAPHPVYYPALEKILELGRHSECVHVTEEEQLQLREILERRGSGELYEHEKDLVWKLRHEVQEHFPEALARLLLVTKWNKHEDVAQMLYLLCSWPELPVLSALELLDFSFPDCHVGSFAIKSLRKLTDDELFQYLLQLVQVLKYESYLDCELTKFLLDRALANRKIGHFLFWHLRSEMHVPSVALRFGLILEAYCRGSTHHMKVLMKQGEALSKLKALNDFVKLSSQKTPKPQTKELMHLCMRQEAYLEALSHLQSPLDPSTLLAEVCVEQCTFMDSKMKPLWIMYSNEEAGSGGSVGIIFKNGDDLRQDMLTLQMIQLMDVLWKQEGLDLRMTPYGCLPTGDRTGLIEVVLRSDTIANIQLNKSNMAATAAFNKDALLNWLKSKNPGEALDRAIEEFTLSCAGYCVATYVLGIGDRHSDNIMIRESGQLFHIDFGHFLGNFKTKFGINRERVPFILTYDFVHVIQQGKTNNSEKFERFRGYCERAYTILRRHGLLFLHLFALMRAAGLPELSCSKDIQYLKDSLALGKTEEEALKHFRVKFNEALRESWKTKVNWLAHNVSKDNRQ
Chain of PI3K δ (P27986 whole entry partner): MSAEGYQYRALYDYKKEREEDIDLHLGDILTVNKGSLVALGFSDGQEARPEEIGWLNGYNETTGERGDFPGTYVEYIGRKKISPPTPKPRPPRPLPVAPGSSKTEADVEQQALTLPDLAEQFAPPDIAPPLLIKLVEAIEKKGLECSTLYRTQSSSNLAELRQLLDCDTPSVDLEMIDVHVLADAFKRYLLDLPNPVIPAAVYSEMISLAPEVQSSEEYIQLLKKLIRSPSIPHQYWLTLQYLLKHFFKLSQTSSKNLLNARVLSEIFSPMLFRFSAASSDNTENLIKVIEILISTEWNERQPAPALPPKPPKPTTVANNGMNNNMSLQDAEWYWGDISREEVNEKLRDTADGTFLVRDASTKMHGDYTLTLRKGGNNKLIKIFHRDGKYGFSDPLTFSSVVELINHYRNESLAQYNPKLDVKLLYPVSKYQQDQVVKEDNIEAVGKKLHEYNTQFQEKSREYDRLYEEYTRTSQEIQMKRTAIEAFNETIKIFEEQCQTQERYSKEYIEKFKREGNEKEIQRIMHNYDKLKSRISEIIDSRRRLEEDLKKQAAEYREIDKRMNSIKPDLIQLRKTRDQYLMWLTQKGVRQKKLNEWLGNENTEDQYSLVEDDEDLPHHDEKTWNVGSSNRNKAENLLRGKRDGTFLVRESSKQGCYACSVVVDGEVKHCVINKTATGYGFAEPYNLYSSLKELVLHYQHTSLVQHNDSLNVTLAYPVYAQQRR
Description: as §1

PI3K β = PI3K β (Homo sapiens, UniProt P42338); experiment: PI 3-Kinase HTRF inhibition assay, PI3K β; assay type: biochemical
Chain of PI3K β (P42338 whole entry): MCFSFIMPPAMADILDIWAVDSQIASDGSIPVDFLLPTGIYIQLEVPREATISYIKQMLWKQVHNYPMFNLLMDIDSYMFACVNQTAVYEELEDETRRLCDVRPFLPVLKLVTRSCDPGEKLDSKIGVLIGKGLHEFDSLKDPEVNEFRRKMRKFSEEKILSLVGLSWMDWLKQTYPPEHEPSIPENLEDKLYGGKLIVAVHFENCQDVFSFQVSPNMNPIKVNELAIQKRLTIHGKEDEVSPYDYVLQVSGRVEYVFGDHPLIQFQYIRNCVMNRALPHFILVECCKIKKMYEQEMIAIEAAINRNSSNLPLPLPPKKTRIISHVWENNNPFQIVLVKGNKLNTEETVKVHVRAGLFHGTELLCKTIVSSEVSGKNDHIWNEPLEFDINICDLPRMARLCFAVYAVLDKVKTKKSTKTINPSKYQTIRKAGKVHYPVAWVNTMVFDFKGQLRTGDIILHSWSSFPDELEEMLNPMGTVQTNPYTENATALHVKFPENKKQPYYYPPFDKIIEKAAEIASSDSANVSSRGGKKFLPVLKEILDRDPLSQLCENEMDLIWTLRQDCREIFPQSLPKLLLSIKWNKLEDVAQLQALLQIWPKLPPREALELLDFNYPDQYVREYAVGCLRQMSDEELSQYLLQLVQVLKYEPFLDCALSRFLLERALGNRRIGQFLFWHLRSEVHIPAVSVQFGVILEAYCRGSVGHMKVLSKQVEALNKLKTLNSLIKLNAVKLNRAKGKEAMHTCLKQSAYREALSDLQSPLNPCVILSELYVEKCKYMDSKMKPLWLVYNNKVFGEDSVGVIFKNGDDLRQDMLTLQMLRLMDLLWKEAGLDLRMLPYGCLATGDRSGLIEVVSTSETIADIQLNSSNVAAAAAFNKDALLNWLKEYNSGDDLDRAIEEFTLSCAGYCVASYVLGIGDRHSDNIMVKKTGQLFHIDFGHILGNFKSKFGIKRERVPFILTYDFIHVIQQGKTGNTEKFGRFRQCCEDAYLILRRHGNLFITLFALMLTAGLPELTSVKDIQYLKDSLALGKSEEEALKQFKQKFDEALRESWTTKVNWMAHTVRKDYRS
Chain of PI3K β (P27986 whole entry partner): as the sequence (P27986 whole entry partner) above
Description: as §1

PI3K γ = PI3K γ (Homo sapiens, UniProt P48736); experiment: PI 3-Kinase HTRF inhibition assay, PI3K γ; assay type: biochemical; details: in vitro
Chain of PI3K γ (P48736 whole entry): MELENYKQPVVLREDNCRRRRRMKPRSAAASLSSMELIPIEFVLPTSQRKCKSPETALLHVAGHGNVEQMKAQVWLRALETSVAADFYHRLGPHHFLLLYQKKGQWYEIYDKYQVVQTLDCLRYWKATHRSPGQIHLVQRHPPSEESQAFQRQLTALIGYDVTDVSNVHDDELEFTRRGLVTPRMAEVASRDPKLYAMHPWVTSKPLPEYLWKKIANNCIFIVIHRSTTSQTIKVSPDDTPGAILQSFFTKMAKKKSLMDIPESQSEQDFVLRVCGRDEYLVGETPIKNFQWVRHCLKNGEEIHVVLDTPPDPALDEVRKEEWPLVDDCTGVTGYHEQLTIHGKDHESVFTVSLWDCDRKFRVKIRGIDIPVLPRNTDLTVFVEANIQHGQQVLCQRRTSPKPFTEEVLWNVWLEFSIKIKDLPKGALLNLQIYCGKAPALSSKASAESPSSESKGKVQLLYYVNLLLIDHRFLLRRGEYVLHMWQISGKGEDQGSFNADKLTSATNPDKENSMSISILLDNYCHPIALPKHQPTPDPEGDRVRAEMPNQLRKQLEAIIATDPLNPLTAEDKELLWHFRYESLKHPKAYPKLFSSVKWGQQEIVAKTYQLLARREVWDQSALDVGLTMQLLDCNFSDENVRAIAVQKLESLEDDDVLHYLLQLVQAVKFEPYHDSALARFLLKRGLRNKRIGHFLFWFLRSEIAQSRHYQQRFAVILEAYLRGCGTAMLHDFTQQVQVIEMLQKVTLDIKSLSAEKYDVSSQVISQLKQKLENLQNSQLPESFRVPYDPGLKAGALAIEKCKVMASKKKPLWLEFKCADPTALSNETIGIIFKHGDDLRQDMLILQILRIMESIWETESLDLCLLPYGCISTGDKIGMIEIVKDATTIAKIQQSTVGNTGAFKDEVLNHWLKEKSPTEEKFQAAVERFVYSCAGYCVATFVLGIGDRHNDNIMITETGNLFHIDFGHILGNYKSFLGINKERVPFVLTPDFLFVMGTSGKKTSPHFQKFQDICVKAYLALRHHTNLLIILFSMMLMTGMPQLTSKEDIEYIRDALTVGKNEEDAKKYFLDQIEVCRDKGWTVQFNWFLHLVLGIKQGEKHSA

MDA-MB-361 = MDA-MB-361 proliferation; assay type: cell-based; details: Homo sapiens; in vitro IC50, MDA-MB-361 cells
Description: The ability of one or more subject compounds to inhibit tumor cell line proliferation is determined according to standard procedures known in the art. For instance, an in vitro cellular proliferation assay can be performed to measure the metabolic activity of live cells. The assay is performed in a 96 well microtiter plate using Alamar Blue reduction. Human tumor cell lines are obtained from ATCC (e.g., MCF7, U-87 MG, MDA-MB-468, PC-3), grown to confluency in T75 flasks, trypsinized with 0.25% trypsin, washed one time with Tumor Cell Media (DMEM+10% FBS), and plated in 90 ul at 5,000 cells/well in Tumor Cell Media. A compound disclosed herein is diluted in Tumor Cell Media and added in a 10 ul volume. Plates are incubated for 72 hours at 37 C and 5% CO2. A volume of 10 uL of Alamar Blue reagent is added to each well and plates are incubated for 3 hours at 37 C and 5% CO2. Alamar Blue fluoresce is read at 560 Ex/590 Em, and IC50 values are calculated using GraphPad Prism 5.
Cells comprising one or more mutations in PI3Kα, including but not limited to breast cancer cells (e.g., MDA-MB-361 and T47D), and cells comprising one or more mutations in PTEN including but not limited to prostate cancer cells (e.g., PC3), are typically grown in cell growth media such as DMEM supplemented with fetal bovine serum and/or antibiotics, and grown to confluency. Cells are then treated with various concentrations of test compound for about 2 hours and subsequently lysed in cell lysis buffer. Lysates are subjected to SDS-PAGE followed by Western blot analysis to detect downstream signaling markers, including but not limited to pAKT(S473), pAKT(T308), pS6, and p4E-BP1. Degree of proliferation (and proliferation inhibition) can also be measured for cells at various doses of compound of the present invention.

[1] = in vitro, read-out: PI3K β IC50

Chain of PI3K α (P42336 whole entry): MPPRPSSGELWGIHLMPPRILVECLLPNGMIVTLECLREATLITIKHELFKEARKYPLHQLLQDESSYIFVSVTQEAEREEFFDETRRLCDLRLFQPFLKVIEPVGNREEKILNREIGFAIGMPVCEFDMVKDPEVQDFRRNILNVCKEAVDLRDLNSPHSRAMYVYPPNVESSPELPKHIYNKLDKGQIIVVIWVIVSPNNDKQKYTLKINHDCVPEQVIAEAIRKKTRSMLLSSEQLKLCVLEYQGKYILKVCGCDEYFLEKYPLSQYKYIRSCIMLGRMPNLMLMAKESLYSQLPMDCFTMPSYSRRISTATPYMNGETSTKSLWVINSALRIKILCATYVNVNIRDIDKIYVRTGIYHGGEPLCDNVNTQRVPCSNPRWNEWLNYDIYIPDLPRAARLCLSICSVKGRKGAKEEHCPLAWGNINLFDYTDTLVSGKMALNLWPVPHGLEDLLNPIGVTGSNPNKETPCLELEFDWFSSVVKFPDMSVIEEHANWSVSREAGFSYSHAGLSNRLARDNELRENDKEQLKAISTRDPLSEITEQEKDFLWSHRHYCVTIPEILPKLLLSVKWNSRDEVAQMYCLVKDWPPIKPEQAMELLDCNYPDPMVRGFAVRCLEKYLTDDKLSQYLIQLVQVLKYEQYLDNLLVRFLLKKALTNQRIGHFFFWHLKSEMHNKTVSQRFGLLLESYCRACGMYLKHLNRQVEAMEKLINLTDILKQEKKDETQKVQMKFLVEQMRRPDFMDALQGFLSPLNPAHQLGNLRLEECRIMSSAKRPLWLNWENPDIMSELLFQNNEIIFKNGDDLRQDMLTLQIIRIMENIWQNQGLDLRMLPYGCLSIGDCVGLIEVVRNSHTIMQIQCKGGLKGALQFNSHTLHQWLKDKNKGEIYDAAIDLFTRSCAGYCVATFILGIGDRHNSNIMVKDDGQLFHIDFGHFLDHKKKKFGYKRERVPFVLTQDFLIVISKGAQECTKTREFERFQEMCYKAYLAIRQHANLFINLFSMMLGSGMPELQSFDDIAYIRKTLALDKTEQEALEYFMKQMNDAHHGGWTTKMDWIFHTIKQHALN
Chain of PI3K α (P27986 whole entry partner): as the sequence (P27986 whole entry partner) above

IC50 (PI3K α) [µM] | IC50 (PI3K δ) [µM] | IC50 (PI3K β; [1]) [µM] | IC50 (PI3K γ) [µM] | IC50 (MDA-MB-361) [µM] | Structure (SMILES) | IC50 (PI3K β) [µM]
< 0.1 | > 10 | > 10 | > 10 |  | CC(C)N1CCN(C2CN(c3cnc4ccc(-c5ccc6nc(N)[nH]c6c5)nc4c3)C2)CC1 [Compound 85] | 
 | > 10 | > 10 | > 10 |  | Nc1nc2cc(-c3ccc4ncc(N5CC(N6C7CCC6COC7)C5)nc4n3)ccc2o1 [Compound 51] | 
< 1 | > 10 | > 10 |  |  | Nc1nc2cc(-c3ccc4ncc(N5CC(N6CC7CCC(C6)O7)C5)nc4n3)ccc2o1 [Compound 20] | 
< 0.1 | > 10 | > 10 | < 1 | < 1 | Nc1nc2cc(-c3ccc4ncc(N5CC6CCC(C5)O6)nc4n3)ccc2o1 [Compound 28] | 
 | > 10 | > 10 | > 10 |  | CN1CCN(C2CN(c3ccc4ncc(-c5ccc6oc(N)nc6c5)cc4n3)C2)CC1 [Compound 84] | 
< 0.1 | > 10 | > 10 | > 10 |  | CN1CCN(C2CN(c3cnc4ccc(-c5ccc6nc(N)[nH]c6c5)nc4c3)C2)CC1 [Compound 88] | 
< 0.1 | > 10 | > 10 | > 10 |  | C[C@H]1CN(C2CN(c3cnc4ccc(-c5ccc6nc(N)[nH]c6c5)nc4c3)C2)CCN1C [Compound 89] | 
< 0.1 | > 10 | > 10 | > 10 |  | C[C@@H]1CN(C2CN(c3cnc4ccc(-c5ccc6nc(N)[nH]c6c5)nc4c3)C2)CCN1C [Compound 86] | 
< 0.1 | > 10 | > 10 | > 10 |  | CCN1CCN(C2CN(c3cnc4ccc(-c5ccc6nc(N)[nH]c6c5)nc4c3)C2)CC1 [Compound 87] | 
< 0.1 | > 10 | > 10 | < 0.1 | < 1 | Nc1nc2cc(-c3ccc4ncc(N5CC6CCC(C5)O6)cc4n3)ccc2o1 [Compound 59] | 
< 1 | > 10 | > 10 |  |  | CC1CN(C2CN(c3cnc4ccc(-c5ccc6oc(N)nc6c5)nc4n3)C2)CCO1 (stereo not drawn) [Compound 18] | 
< 0.1 | < 1 | < 1 | < 1 | < 10 | CN1CC2CN(c3cnc4ccc(-c5ccc6oc(N)nc6c5)nc4c3)CC2C1 (stereo not drawn) [Compound 79] | 
< 0.1 | < 0.1 | < 1 | < 1 | < 0.1 | CN1CCN(C2CN(c3cnc4ccc(-c5ccc6oc(N)nc6c5)nc4c3)C2)CC1(C)C [Compound 83] | 
< 0.1 | > 10 |  | < 0.1 |  | Nc1nc2cc(-c3ccc4ncc(N5C6CCC5COC6)cc4n3)ccc2o1 [Compound 23] | 
 |  |  |  | < 10 | Nc1nc2cc(-c3ccc4ncc(N5CC(N6CCN(C7CC7)CC6)C5)cc4n3)ccc2o1 [Compound 70] | 
 |  |  |  | < 1 | CN1CCN(C2CN(c3cnc4ccc(-c5ccc6oc(N)nc6c5)nc4c3)C2)CC1=O [Compound 64] | 
 |  |  |  | < 10 | Nc1nc2cc(-c3ccc4ncc(N5CC(N6CCOCC6)C5)cc4n3)ccc2o1 [Compound 53] | 

Structure (SMILES) | IC50 (PI3K α) [µM] | IC50 (PI3K δ) [µM] | IC50 (PI3K β; [1]) [µM] | IC50 (PI3K γ) [µM] | IC50 (MDA-MB-361) [µM] | IC50 (PI3K β) [µM]
Nc1nc2cc(-c3ccc4ncc(N5CC(N6C7CCC6COC7)C5)cc4n3)ccc2o1 [Compound 67] | < 0.1 |  | > 10 | < 1 | < 10 | 
Nc1nc2cc(-c3ccc4ncc(N5C6CCC5COC6)nc4n3)ccc2o1 [Compound 19] | < 0.1 | > 10 | > 10 | < 0.1 | < 1 | 
Nc1nc2cc(-c3cnc4ccc(N5C6CCC5COC6)nc4c3)ccc2o1 [Compound 81] |  | > 10 |  |  |  | > 10
